Laboratory results from US9102697B2, “Trioxacarcins and uses thereof” (President and Fellows of Harvard College, priority 2010, dated 2015).
“Also recorded” adds a separate entry of the source.

Tests used:
H460 cells = assay: Cell proliferation assay (MTS/PMS), H460 cells; type: cell-based; conditions: H460 cell line (printed H4609 in b565); 72 h at 37 °C
Protocol: (§1) Cell Culture. H460 cells and HeLa S3 cells were purchased from American Type Culture Collection (ATCC). H460 cells were maintained in RPMI-1640 medium supplemented with 10% fetal bovine serum (FBS). HeLa S3 cells were maintained in Dulbecco's Modified Eagle's Medium supplemented with 10% fetal bovine serum (FBS).
(§2) Cell Proliferation Assay. A solution of H460 or HeLa S3 cells (3000 cells/well) in growth medium was seeded onto a 96-well plate. The 96-well plate was incubated for 24 h at 37° C. Stock solutions of each compound were serially diluted and administrated to cells to achieve final concentrations of 38 nM to 83 μM (DC-45-A2 and iso-DC-45-A2) or 3.4 nM to 7.5 μM (dideoxy-DC-45-A2). After incubating at 37° C. for 72 h, 20 μL of MTS/PMS solution (Promega CellTiter 96® Aqueous Non-Radioactive Cell Proliferation Assay) was added to each well. After incubating at 37° C. for 3.5 h, the absorbance at 490 nm was recorded using a microplate reader (SpectraMax PLUS384) as a measure of viable cells. Percent growth inhibition was calculated for each well based upon the following formula: percent growth inhibition=100×(C−T)/C, where T is the absorbance of the well containing the test compound minus the average absorbance of wells containing media alone, and C is the average absorbance of wells containing vehicle control-treated cells minus the average absorbance of wells containing media alone. […]

[1] = system: self-complementary duplex 12-mer d(AATTACGTAATT) (SEQ ID NO: 1); assay: DNA alkylation detected by LC/MS; type: biochemical; conditions: for covalent DNA-small molecule complex formed (LC/MS chromatogram): oligonucleotide 100 μM, 1 equiv compound, pH 7 buffer; for products from alkylated oligonucleotide after piperidine treatment: 1.0 M piperidine, 30 minutes at 95 °C
Text: Next, we performed a set of experiments to determine whether the DC-45-A2 and dideoxy-DC-45-A2 complexes observed by DNA-gel electrophoresis were covalent or not. A liquid chromatography-mass spectrometry (LC/MS) method was developed for the detection of DNA oligonucleotides and covalent DNA-small molecule complexes. The mass spectrometer was used in a negative ion mode under conditions that had been optimized for the detection of single-stranded nucleic acids.
To solutions of the oligonucleotide d(AATTACGTAATT) (SEQ ID NO: 1) (100 μM) in pH 7 buffer were added, in three separate reaction vials, 1 equiv of DC-45-A2, 1 equiv of iso-DC-45-A2, or 1 equiv of dideoxy-DC-45-A2. After incubation for 24 h at 23° C., it was evident from the LC/MS chromatogram that a covalent DNA-small molecule complex had formed in both the DC-45-A2 and dideoxy-DC-45-A2 reaction mixtures but not in the iso-DC-45-A2 reaction mixture (FIG. 13). The alkylated single-stranded oligonucleotide eluted as a signal that was separate from the non-alkylated oligonucleotide. […] The absence of an iso-DC-45-A2 complex is consistent with the absence of reactivity of this compound towards the oligonucleotide under the alkylation conditions in the DNA-gel experiment described in the section above. The IC50 values of the three compounds in antiproliferative assays are also depicted in FIG. 13.
To test whether or not alkylation by DC-45-A2 and dideoxy-DC-45-A2 occurs at the N7 guanine site via the same epoxide opening mechanism observed for trioxacarcin A, we treated samples of alkylated oligonucleotide with piperidine to provide a product solution with a final concentration of 1.0 M in piperidine. […] This fragmentation is consistent with induced single strand cleavage of the type observed in the Maxam-Gilbert G-specific reaction that is associated with N7 guanine alkylation. In the present case, the guanine residue has been excised and the phosphates at the 3′ and 5′ positions have been eliminated to give the two fragment strands.
General Method: To a solution of dsDNA [ds(AATTACGTAATT) (SEQ ID NO: 1), 1.07 mM] in alkylation buffer (86.7 μL, see above for preparation of solutions) in a 1.7-mL centrifuge tube was added a solution of DC-45-A2 in DMSO (2.00 μL, 5 mM). The sample was votexed, then rotated end-over-end at 23° C. for 2 h. The sample was stored at 4° C. for 16 h. The sample was diluted to a concentration of 5 μM of dsDNA. A 10 μL sample of the diluted solution was injected into a short oligonucleotide column (gradient elution with […] TEAB buffer and methanol, flow rate 150 μL/min) and the column output was monitored by mass spectrometry in a negative ionization mode. The doubly deionized DC-45-A2-alkylated single-stranded DNA oligonucleotide (mass/charge=2079.4) was detected at 9.32 min.
To five separate solutions (designated as vials 1-5) of duplex DNA oligonucleotide d(AATTACGTAATT) (SEQ ID NO: 1) (0.72 mM [concentration of the DNA duplex] in alkylation buffer [see paragraph above for preparation], 13.9 μL, 10 nmol, 1 equiv) in alkylation buffer (84.1 μL) were added, respectively, DC-45-A2 (5.0 mM solution in dimethylsulfoxide, 2.0 μL, 10 nmol, 1.0 equiv, vials 1 and 2), iso-DC-45-A2 (5.0 mM solution in dimethylsulfoxide, 2.0 μL, 10 nmol, 1.0 equiv, vial 3), and dideoxy-DC-45-A2 (5.0 mM solution in dimethylsulfoxide, 2.0 μL, 10 nmol, 1.0 equiv, vials 4 and 5). The samples were vortexed, then rotated end-over-end at 23° C. After 23 h 30 min, vials 2 and 5 were diluted with piperidine (10 μL) and placed in a heating block at 95° C. After 30 min, vials 2 and 5 were cooled by centrifugation for 30 seconds (VWR Labnet C-1200 Minicentrifuge). After a total reaction time of 24 h, a 5-μL aliquot was removed from each of the five reaction mixtures. Each aliquot was diluted with alkylation buffer (95 μL, see above for preparation). […]

HeLa S3 cells = assay: Cell proliferation assay (MTS/PMS), HeLa S3 cells; type: cell-based; conditions: HeLa cell line; 72 h at 37 °C
Protocol: as §1, §2

For COc1c2c(c(O)c3c4c(c(C)cc13)[C@H]1O[C@]3(C(OC)OC)O[C@H]1[C@](O)(O4)[C@@]31CO1)C(=O)[C@@H](O)C[C@@H]2O [iso-DC-45-A2, 11,12,13,15-tetraepi-DC-45-A2], the “IC50, growth inhibition” value (H460 cells) was “inactive”, the “covalent DNA-small molecule complex formed (LC/MS chromatogram)” value ([1]; 24 h at 23 °C) was “not” and the “IC50, growth inhibition” value (HeLa S3 cells) was “inactive”.
For DC-45-A2, the “IC50, growth inhibition” value (H460 cells) was “micromolar; also recorded: submicromolar”, the “products from alkylated oligonucleotide after piperidine treatment” value [1] was “pTAATT and AATTACp” and the “covalent DNA-small molecule complex formed (LC/MS chromatogram)” value ([1]; 24 h at 23 °C) was “had formed”. The “IC50, growth inhibition” value (HeLa S3 cells) was “micromolar; also recorded: submicromolar”.
For Dideoxy-DC-45-A2, the “products from alkylated oligonucleotide after piperidine treatment” value [1] was “pTAATT and AATTACp”, the “relative abundance of the covalent complex” value ([1]; 24 h at 23 °C, compared with DC-45-A2 complex) was “greater relative abundance” and the “covalent DNA-small molecule complex formed (LC/MS chromatogram)” value ([1]; 24 h at 23 °C) was “had formed”.
